Laboratory results from patent US8962263B2, “Methods and compositions for detecting the activation state of multiple proteins in single cells” (The Board of Trustees of the Leland Stanford Junior …, priority 2001, dated 2015).

Tests used:
PDK-1 = PDK-1 immunoprecipitation kinase assay from ICAM-2 cells; type: biochemical; conditions: compounds 10 μM, 1 hr
Description: A) ICAM-2, interacts with α-actinin and ezrin. ICAM-2, ICAM2-ΔC or control cells were immunoprecipiated for ICAM-2, and immunoblotted for either a-actinin or ezrin. Control lysates were not subjected to immunoprecipitation and reflect positive controls for detected interacting protein. […] ICAM-2, and control cells were serum starved (48, hrs), treated with LY294002, (10, μM, 24, hrs), or cultured in growth media, and prepared for intracellular detection of phosphatidyinositol 3,4,5, triphosphate detection by flow cytometry. […] Phosphotransfer of ATP to peptide substrate was detected by scintillation counting and presented as counts per minute CPM. […]
PDK-1 activity was determined by a PDK-1 immunoprecipiation kinase assay kit (Upstate Biotecnology, Lake Placid, N.Y.) as recommended by manufacturer. In brief, PDK-1 was immunoprecipitated from 1×10^6 treated cells, incubated with inactivated SGK enzyme, and detection of (γ-^32P) ATP incorporation to a SGK peptide substrate was measured by scintillation counting. PI3K activity was detected by developed PI3K FACS based assay (see below). AKT activity was detected by immunoprecipitation of AKT1 from cells and used in a kinase assay with GSK3 fusion protein (CST). […] Kinase reaction was terminated with SDS sample buffer boiled for 5 min, and phosphorylation state of GS3K was detected by immunoblotting and visualized using ECL detection (Amersham). […]

ezrin = test: phosphotyrosine-protein based elisa for ezrin tyrosine phosphorylation upon ICAM-2 ligation; type: cell-based, human; conditions: Jurkat cells
Method: A) Expression levels of ICAM-2, vary across cell lines of different origins. Quantitative flow cytometry analysis was performed to assess the number of ICAM-2 surface molecules across transformed and untransformed fibroblasts, lymphocytes of T-cell and different B-cell differentiation states and myeloid lineages (see Material and Methods for elaboration). The number of surface molecules/cell is expressed as the mean (bar)+/−SD of triplicate experiments. B) Crosslinking of endogenous ICAM-2, induces ezrin tyrosine phosphorylation and enhanced ICAM-2, interaction. Jurkat cells were crosslinked for ICAM-2 using monoclonal antibody for the indicated times and subjected to immunoprecipitation/immunoblotting as indicated. C) Inhibition of ezrin phosphotyrosine by chemical inhibitors of src and Rho-dependent kinases. D) Ezrin phosphorylation and enhanced interaction with the p85, subunit of PI3K as a function of ICAM-2. Determined as described above. E) PDK-1, activity as a function of ICAM-2, ligation, as described above). F) PI3K and AKT localize to the membrane as a function of ICAM-2, ligation. Membrane/cytosolic fractionation was performed on ICAM-2, ligated Jurkat cells as a function of time and subjected to immunoblotting for PI3K and AKT.
In order to identify upstream kineses capable of tyrosine phosphorylating ezrin as a function of ICAM-2 ligation, we developed a phosphotyrosine-protein based elisa to screen for the inhibition of ezrin tyrosine phosphorylation in vivo by various known inhibitors of protein kineses (Perez and Nolan, manuscript in preparation). […] Given the design of the screen to detect tyrosine residue phosphorylation, we speculate that activation of Rho-dependent processes may be a prerequisite for ezrin to be tyrosine phosphorylated by src (elaborated below).

Jurkat T cells = test: anti-Fas induced apoptosis in ICAM-2 crosslinked Jurkat cells, annexin-V binding assay; type: cell-based, human; conditions: inhibitor 10 μM 1 hour, anti-Fas 50 ng/ml 8 hours
Method: A) ICAM-2, crosslinking induced AKT activity in Jurkat T cells and subsequent phosphorylation of GSK3, FKHR, and AFX as a function of time. Serum starved Jurkat T cells were incubated with either isotype control or anti-human ICAM-2, (10, μg/ml) for the indicated times. AKT kinase activity was determined as described. Immunoblot analysis verified AKT dual phosphorylation, FKHR and GSK3 phosphorylation, and BAD phosphorylation as a function of ICAM-2, crosslinking. B) ICAM-2 crosslinking induces AKT activity in BaF3, pre-B cells. […] ICAM-2, was crosslinked on 106, Jurkat T cells using an ICAM-2, mAb (10, μg/ml) 30, minutes prior to treatment with staurosporine (+) or DMSO vehicle (−). Apoptosis was determined by flow cytometry using annexin-V binding assay. […] Cells were assessed for apoptosis by annexin-V binding assay. […]
Apoptosis was determined either by counting pyknotic nuclei, annexin-V binding by flow cytometry, or TUNEL BrdU staining by flow cytometry as indicated. Apoptosis was induced either by staurosporine (1 μm), treatment with anti-mouse Fas (5 μq/ml Santa Cruz Biotechnology (SCB), anti-human Fas ([…]) as indicated in appropriate experiment, IL-3 withdrawal-(24 hrs) or as indicated. For pyknolic nuclei count, NIH3T3 cells were grown on glass coverslips and assayed for apoptosis. Suspension cells were analyzed by nuclear staining with 25 μM acridine orange/25 μm ethidium bromide or 5 μg/ml Hoechst 33342 (Molecular Probes, Eugene, Oreg.). Apoptosis was identified by the presence of characteristic pyknotic nuclei as described (Jacobson and Raff, 1995). At least 5 individual fields were photographed and counted using a Zeiss axioscope fluorescence microscope. […] The cells were trypsinized and viable cells counted following trypan blue staining. Untreated cells were counted at the time of treatment. % survival represents (number of viable cells post-treatment)/(number of viable cells pretreatment). […] Flow cytometry analysis was performed on a BD FACSCalibur machine with CELLQuest and analyzed using FlowJo software (Tree Star).

CD19+ human B cells = conditions: 10 μM, 30 minutes
Method: Apoptosis was measured by annexin-V binding detected by flow cytometry, and gated for CD19+, cells. […] Apoptosis was measured by annexin-V binding assay.
Antibody cross-linking experiments were performed using mAbs to anti-ICAM-1, anti-ICAM-2, anti-ICAM-3, anti-CD43, or anti-CD44 that recognizes the N-terminal region (extracellular domain) at 10 μg/ml. Spin dialysis (Biorad) was used for buffer exchange of azide containing antibodies (0.01%) to phosphate buffered saline buffer pH 7.4. Anti-mouse IgG (Sigma) was used as a control antibody in cross-linking experiments. 1×10^6 Jurkat, 1×10^6 BaF3, or 1×10^7 PBMC cells were serum starved for 4 hours respectively (except PBMC). Cells were incubated with either mAb (10 μg/ml) or mouse IgG (10 μg/ml) at 37° C. for the indicated time. Time points began post serum starvation to attenuate most of the signaling pathways or as indicated. […] Cells extracts were taken and subjected to either immunoprecipitation or immunoblotting were appropriate. Primary cells were subjected to apoptotic treatment followed by preparation for flow cytometry. GTPγS was made cell permeant by pre-incubating compound with Fugene (Roche Biochemicals) in a 1:4 molar ratio for 30 minutes at 25° C. prior to being applied to cells.

C[C@@H](N)[C@H]1CC[C@H](C(=O)Nc2ccncc2)CC1 [Y-27632]
PDK-1 activity in ICAM-2 cells (PDK-1): partially inhibited
tyrosine phosphorylation of ezrin (ezrin): inhibit the tyrosine phosphorylation of ezrin
tyrosine phosphorylation of ezrin (ezrin; listed as Y-27362): abolished tyrosine phosphorylation of ezrin
ICAM-2 crosslinking protection against Fas induced apoptosis (Jurkat T cells): abrogated
ICAM-2 anti-apoptotic effect in CD19+ human B cells (CD19+ human B cells): abrogated
